Non-standard residues stand in square brackets, D forms with d. Residues, ends and D or L forms follow the SMILES beside them.
Columns and labels:
tPA or TNK = format: biochemical, human; conditions: range over peptide concentrations 0.25-16 µM and both thrombolytics; 1-h assay
Experimental: We utilised a high throughput 96-well plate thrombolysis assay (“halo clot assay”) based on the procedure developed by Bonnard et al.. To reduce assay components the halo thrombus formation procedure was modified by replacing the original thrombotic mixture consisting of recombinant tissue factor and synthetic phospholipids reconstituted in 30 mM calcium, with thrombin, and reducing the pro-thrombotic volume (i.e., thrombin) from 5 to 3 µL and blood volume from 25 to 12 µL. Another modification to simplify clot formation consisted of adding the thrombin (3 µL; 500 nM in saline) to one side of the well and 12 µL of blood to the opposite side of well, before using a heat stretched Pasteur pipette with sealed end to mix the two liquids together using 4 to 5 circular motions around the edge of the well (halo clot). The original methodology involved adding the 5 μL of the clotting mixture to the edge of the well, and then using a micropipette to slowly release the 25 μL of blood to the edge of the well while at the same time maintaining a circular motion. Plates were incubated in a humidified 37 °C incubator for 1 h before use in the thrombolysis assay.
The thrombolysis assay involved adding 30 µL of Tris buffer (50 mM Tris–HCl, 100 mM NaCl, pH 7.4) with or without peptide followed by 55 µL Tris buffer containing tPA or TNK (5 nM final concentration) and 50% human plasma (final plasma concentration during thrombolysis 27.5%). The final concentration of peptide during thrombolysis ranged from 0.25 to 16 µM (note: an intravenous dose of R18D at 350 nmol/kg, which is likely to be neuroprotective achieves a Cmax of 0.7–0.9 µM in healthy male and female rats; unpublished observation). […] Following the addition of tPA or TNK into the wells, clot lysis was monitored over a 1-h period at 37 °C using a plate reader (Cytation5, BioTek, USA) by measuring absorbance at 510 nm every 1 min immediately after orbital shaking (205 rpm for 5 s). Controls consisted of wells with no thrombin (100% clot lysis; L100%) and wells with no tPA or TNK (0% clot lysis; L0%). At the 1-h time point, the percentage of thrombolysis (%T) in tPA or TNK treated samples (LTX) was calculated by transforming absorbance values based on the formula: % T = (LTX) − (L0%)/(L100%) − (L0%) × 100. In addition, during the 1-h period of clot lysis lag time and maximal activity (also known as maximum velocity or Vmax) of the thrombolysis reaction were calculated. The lag time is defined as the time interval between the first absorbance reading (time = 0) and the line of maximum slope of the thrombolysis reaction. The maximal activity is calculated from the maximum slope over the time course of the assay and reflects the capacity of an enzyme to catalyse a reaction (i.e., thrombolysis), with higher values representing higher catalytic activity (i.e., tPA/TNK induced plasmin thrombolysis).
For each thrombolysis assay, replicates for control wells (L0% and L100%) and tPA or TNK only treated wells consisted of n = 4–8. Replicates for tPA or TNK and peptide treated wells consisted of n = 4. For data analysis and graphical representations of the results, data from three independent thrombolytic assays were pooled. Studies consisted of R18D, R18 and NA-1 examined at the 0.5, 1, 2, 4, 8 or 16 µM concentrations performed concurrently on the same 96-well plate, in respective order. […]

tPA = target: T1, tPA (Homo sapiens, UniProt P00750); assay: Neuroprotective proteolytic stability after pre-incubation with tPA (glutamic acid excitotoxicity model, MTS); format: in vitro ADME; conditions: 1 or 2 h or overnight (22-24 h)
T1 construct: purchased Boehringer Ingelheim, Germany 10 mg vial
Experimental: (§1) Neuronal cultures were maintained in CO2 incubator.
(§2) tPA (1000 µg/mL) or TNK (5000 µg/mL) resuspended in water (Baxter) were used to prepare 10 µg/mL (170 nM; note this is 34 times the concentration used in thrombolysis assay) stocks in MEM/2% B27 supplement (MEM/B27).
(§3) All data are presented as mean ± standard deviation (SD).

TNK = target: T2, TNK (Homo sapiens, UniProt P00750, H332A/K331A/N152Q/R333A/R334A/T138N); assay: Neuroprotective proteolytic stability after pre-incubation with TNK (glutamic acid excitotoxicity model, MTS); format: in vitro ADME; conditions: 1 or 2 h or overnight (22-24 h)
T2 construct: purchased Boehringer Ingelheim 50 mg vial
Experimental: as §1, §2, §3

trypsin (TrypLE Express) = trypsin (TrypLE Express) (Fusarium oxysporum, UniProt P35049)
Experimental: Rat primary cortical cultures were established from embryonic day 18–19 Sprague–Dawley rats (Animal Resources Centre, WA, Australia). Briefly, cortical tissue was dissociated in 2 mL Hanks balanced salt solution (HBBS; Life Technologies, Australia) supplemented with 1.3 mM L-cysteine, 10 U/mL papain (Sigma-Aldrich, Australia) and 50 U/mL DNase (Sigma-Aldrich) by trituration with a fire-polished pipette. Dissociated neurons were transferred to a 15-mL tube containing 13 mL of cold Dulbecco’s modified Eagle’s medium (DMEM; Life Technologies)/10% horse serum (Life Technologies) and centrifuged for 4 min at 300×g. Neurons were gently resuspended in 1.5 mL of cold Neurobasal (NB; Life Technologies)/2% B27 supplement (B27; Life Technologies) and the neuronal cell concentration adjusted to 50,000 neurons/70 μL and 70 μL inoculated into each well of a 96-well microtiter plate (Nunc, USA) pre-treated wells. Pre-treated wells were coated with 50 μL of poly-D-lysine (50 μg/mL; 70–150 K; Sigma-Aldrich) for 2–3 h at room temperature before being replaced with 50 μL of NB/B27, 4% fetal bovine serum (Life Technologies), 1% horse serum, 62.5 μM glutamic acid, 25 μM 2-mercaptoethanol, 30 μg/mL penicillin and 50 μg/mL streptomycin and placed in a CO2 incubator (5% CO2, 95% air balance, 98% humidity, 37 °C) prior to seeding with neurons. Neuronal cultures were maintained in CO2 incubator. On day in vitro four, 60 µL fresh NB/B27 containing the mitotic inhibitor cytosine arabinofuranoside (final concentration 0.15 μM; Sigma-Aldrich) was added and neuronal culture were used on day in vitro 11 to 13.
As an alternative to trypsin, TrypLE Express (Thermo Fischer Scientific, Australia) a synthetic serine protease with trypsin-like activity was used. […] Hereafter, TrypLE Express is referred to as trypsin.
Trypsin solution was added to an equal volume of MEM/2% B27 (T:MEM/B27). […] Following the incubation, 50 µL of the T:MEM/B27 or HBSS:MEM/B27 peptide solution was used to treat neuronal culture as described below for the glutamic acid excitotoxicity model. […]

plasmin = conditions: cited from earlier work
Source text: Given the potential future application of the R18D, R18 and NA-1 peptides as ischaemic stroke neurotherapeutics, it is important to establish if they interfere with current and future standard of care treatments, namely alteplase (tPA; recombinant tissue plasminogen activator) and tenecteplase (TNK; a modified version of tPA) thrombolysis, which are routinely administered prior to thrombectomy. […] NA-1 is also degraded by plasmin [8]. Together, these findings confirm that peptides synthesised with D-enantiomer amino acids such as R18D, unlike peptides synthesised with L-enantiomer amino acids are highly resistant to proteolytic degradation and are likely to retain their neuroprotective efficacy ...

[1] = intravenous dose 350 nmol/kg, healthy male and female rats; ref unpublished observation; cited from earlier work
[2] = in the order; 8 (NA-1), unpublished data (R18D); cited from earlier work
Source text: It is important to mention that the results obtained in this study are likely to overestimate any negative effects of R18D, R18 and NA-1 on tPA/TNK lag time and thrombolysis compared with what would occur clinically for several reasons. Firstly, positively charged peptides administered directly into the circulation would have a larger pool of negatively charged plasma proteins such as albumin to bind, and thus reduce any inhibitory electrostatic effects of the peptides on lag time and thrombolysis. In addition, the in vitro thrombolysis assay used in this study was performed in 27.5% plasma wh ...

T1 sequence (P00750 36-562): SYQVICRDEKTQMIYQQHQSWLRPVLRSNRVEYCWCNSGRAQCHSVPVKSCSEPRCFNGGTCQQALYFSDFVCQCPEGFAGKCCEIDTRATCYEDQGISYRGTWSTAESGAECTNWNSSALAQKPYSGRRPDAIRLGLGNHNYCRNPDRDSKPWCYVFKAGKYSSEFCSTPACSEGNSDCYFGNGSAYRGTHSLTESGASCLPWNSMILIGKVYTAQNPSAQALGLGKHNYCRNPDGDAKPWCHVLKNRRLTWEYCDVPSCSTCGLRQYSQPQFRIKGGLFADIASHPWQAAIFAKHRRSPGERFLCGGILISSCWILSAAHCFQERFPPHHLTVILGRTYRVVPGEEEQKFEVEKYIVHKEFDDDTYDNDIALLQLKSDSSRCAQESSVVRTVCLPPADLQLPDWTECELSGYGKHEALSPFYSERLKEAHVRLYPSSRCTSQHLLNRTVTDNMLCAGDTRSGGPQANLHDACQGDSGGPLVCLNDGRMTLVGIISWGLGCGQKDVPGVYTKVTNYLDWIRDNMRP
Sequence of trypsin (TrypLE Express) (P35049 25-248): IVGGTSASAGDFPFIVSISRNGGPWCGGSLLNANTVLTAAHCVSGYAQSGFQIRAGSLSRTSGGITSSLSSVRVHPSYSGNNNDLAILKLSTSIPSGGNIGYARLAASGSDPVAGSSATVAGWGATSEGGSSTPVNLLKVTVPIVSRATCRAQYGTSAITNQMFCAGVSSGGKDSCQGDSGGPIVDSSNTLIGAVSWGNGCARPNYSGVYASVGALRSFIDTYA
T2 sequence (P00750 36-562 T138N/N152Q/K331A/H332A/R333A/R334A): as the sequence (P00750 36-562) above, with T103N, N117Q, K296A, H297A, R298A, R299A counted along it

In the case of `N=C(N)NCCC[C@@H](N)C(=O)N[C@H](CCCNC(=N)N)C(=O)N[C@H](CCCNC(=N)N)C(=O)N[C@H](CCCNC(=N)N)C(=O)N[C@H](CCCNC(=N)N)C(=O)N[C@H](CCCNC(=N)N)C(=O)N[C@H](CCCNC(=N)N)C(=O)N[C@H](CCCNC(=N)N)C(=O)N[C@H](CCCNC(=N)N)C(=O)N[C@H](CCCNC(=N)N)C(=O)N[C@H](CCCNC(=N)N)C(=O)N[C@H](CCCNC(=N)N)C(=O)N[C@H](CCCNC(=N)N)C(=O)N[C@H](CCCNC(=N)N)C(=O)N[C@H](CCCNC(=N)N)C(=O)N[C@H](CCCNC(=N)N)C(=O)N[C@H](CCCNC(=N)N)C(=O)N[C@H](CCCNC(=N)N)C(=O)O` [R18D] (H-[dR][dR][dR][dR][dR][dR][dR][dR][dR][dR][dR][dR][dR][dR][dR][dR][dR][dR]-OH), the “Increase in lag time (time to the commencement of thrombolysis)” value (tPA or TNK) is reported as 0 to 9.9 min, the “Resistance to degradation by tPA” value (tPA; inferred from retained neuroprotection, peptide 2 µM, tPA 170 nM) is reported as “resistant to degradation” and the “Neuroprotective efficacy after incubation with tPA” value (tPA; peptide 2 µM in MEM/B27 with tPA 10 µg/mL (170 nM), 37 °C CO2 incubator, then rat cortical neurons, glutamic acid 100 µM 5 min, MTS viability at 20-24 h, N = 4-8) is reported as “a similar and a high level of neuroprotective efficacy”. For the same compound, the “Resistance to degradation by TNK” value (TNK; inferred from retained neuroprotection, peptide 2 µM, TNK 170 nM) was “resistant to degradation”, the “Neuroprotective efficacy after incubation with TNK” value (TNK; peptide 2 µM in MEM/B27 with TNK 10 µg/mL (170 nM), 37 °C CO2 incubator, then rat cortical neurons, glutamic acid 100 µM 5 min, MTS viability at 20-24 h, N = 4-8) was “a similar and a high level of neuroprotective efficacy” and the “Resistance to degradation by trypsin” value (trypsin (TrypLE Express)) was “resistant to degradation by trypsin”. The “High-level neuroprotective efficacy after incubation with trypsin” value (trypsin (TrypLE Express); peptide 2 µM in 50% TrypLE Express : MEM/B27, 1 or 2 h or overnight (22-24 h), 37 °C CO2 incubator, then rat cortical neurons, glutamic acid 100 µM 5 min, MTS viability at 20-24 h, N = 4-8) was “displayed a high-level neuroprotective efficacy”, the “Neuroprotective properties in the glutamic acid excitotoxicity injury model when pre-incubated with plasmin” value (plasmin) was “retains its neuroprotective properties” and the “Sensitivity to proteolytic degradation by plasmin” value (plasmin) was “not”. For the same compound, the Cmax [1] was 0.7 to 0.9 µM, the “In vivo peak plasma concentration” value [2] was 1 to 5 µM and the Plasma half-life [2] was 5 to 15 min.
